Results reported in article PMC5110245, “Identification and reconstitution of the rubber biosynthetic machinery on rubber particles from Hevea brasiliensis” (eLife, 2016).

Columns and labels:
Format in all cases: biochemical
[1] = molecular target: T1, HRT1–HRBP–REF (Hevea brasiliensis, UniProt Q8L5B7); assay: […]-IPP incorporation into rubber, allylic substrate dependency; settings: allylic primer 15 µM; 100 µM [4-14C]IPP, 5 mM MgCl2, pH 7.5, 30 °C, 8 h; on WRPs
T1 construct: gene Hpt4; full-length CDSs, wheat germ cell-free co-translation onto CHAPS-washed Hevea rubber particles (WRPs); HRBP His6-tagged; stoichiometry not known; endogenous background present; Rubber elongation factor protein

[2] = molecular target: T2, HRT1 (Hevea brasiliensis, UniProt Q8L5B7); assay: […]-IPP incorporation into rubber, net of vector-control WRPs; settings: 15 µM FPP, 5 mM MgCl2, pH 7.5, 30 °C; on WRPs; labelled compound
T2 construct: gene Hpt4; full-length CDS in pEU-E01-His-TEV-MCS-N2; wheat germ cell-free translation onto CHAPS-washed Hevea rubber particles (WRPs), which keep small amounts of endogenous proteins
T2 sequence (Q8L5B7 1-290): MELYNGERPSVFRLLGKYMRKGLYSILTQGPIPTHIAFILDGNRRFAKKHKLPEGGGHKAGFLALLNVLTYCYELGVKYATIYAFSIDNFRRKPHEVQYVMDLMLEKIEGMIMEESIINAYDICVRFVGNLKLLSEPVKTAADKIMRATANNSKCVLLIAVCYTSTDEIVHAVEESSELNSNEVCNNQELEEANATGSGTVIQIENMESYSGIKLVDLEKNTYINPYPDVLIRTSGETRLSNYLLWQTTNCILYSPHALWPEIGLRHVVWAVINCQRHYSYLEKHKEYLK

[3] = molecular target: T3, LsCPT3-LsCPTL2 (Lactuca sativa, UniProt A0A0A0QMT0); assay: as above; settings: 15 µM FPP, 5 mM MgCl2, pH 7.5, 30 °C; on Hevea WRPs; labelled compound
T3 construct: full-length synthetic CDSs (LsCPT3 in pEU-E01-His-TEV-MCS-N2, LsCPTL2 in pEU-E01-His-TEV-MCS-C1); wheat germ cell-free co-translation onto CHAPS-washed Hevea rubber particles (WRPs); with cis-prenyltransferase-like 2
T3 sequence (A0A0A0QMT0 1-296): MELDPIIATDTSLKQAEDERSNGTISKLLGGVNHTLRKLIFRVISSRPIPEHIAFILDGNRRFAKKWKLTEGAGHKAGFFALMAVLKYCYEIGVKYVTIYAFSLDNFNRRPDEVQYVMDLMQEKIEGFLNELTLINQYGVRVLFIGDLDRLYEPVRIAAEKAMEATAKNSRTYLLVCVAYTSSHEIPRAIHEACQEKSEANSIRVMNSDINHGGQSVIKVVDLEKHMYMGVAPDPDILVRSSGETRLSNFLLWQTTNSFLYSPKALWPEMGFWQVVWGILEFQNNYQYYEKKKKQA
T3 sequence (A0A0A0QP73 1-244 partner): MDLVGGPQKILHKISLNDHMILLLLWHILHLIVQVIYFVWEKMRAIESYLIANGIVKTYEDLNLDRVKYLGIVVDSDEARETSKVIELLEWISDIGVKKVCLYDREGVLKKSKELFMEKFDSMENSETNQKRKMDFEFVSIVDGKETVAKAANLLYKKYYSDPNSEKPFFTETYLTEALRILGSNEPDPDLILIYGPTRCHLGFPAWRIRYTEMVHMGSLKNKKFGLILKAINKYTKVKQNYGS

T1 sequence (P15252 2-138, one chain of several): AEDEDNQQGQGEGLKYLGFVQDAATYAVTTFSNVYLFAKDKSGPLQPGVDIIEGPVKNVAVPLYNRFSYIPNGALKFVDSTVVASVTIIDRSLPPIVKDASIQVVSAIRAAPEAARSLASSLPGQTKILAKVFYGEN
T1 sequence (A0A1E1GJI0 entry or part of it, one chain of several, further chain): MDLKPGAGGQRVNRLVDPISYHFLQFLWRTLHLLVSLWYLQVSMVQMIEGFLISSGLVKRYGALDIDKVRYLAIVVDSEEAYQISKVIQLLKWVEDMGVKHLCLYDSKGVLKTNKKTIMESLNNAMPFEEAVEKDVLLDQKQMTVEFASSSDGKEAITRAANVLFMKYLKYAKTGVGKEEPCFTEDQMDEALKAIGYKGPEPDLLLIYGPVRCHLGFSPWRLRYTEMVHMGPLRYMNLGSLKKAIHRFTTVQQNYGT

14C-IPP incorporation into rubber, allylic substrate dependency [1]	SMILES	14C-IPP incorporation into rubber, net of vector-control WRPs [2]	14C-IPP incorporation into rubber, net of vector-control WRPs [3]
the RTase was most active with FPP (C15)	CC(C)=CCC/C(C)=C/CC/C(C)=C/COP(=O)(O)OP(=O)(O)O [FPP, E,E-farnesyl diphosphate]		
	C=C(C)CCOP(=O)(O)OP(=O)(O)O [IPP, isopentenyl diphosphate]	introduction of HRT1 onto WRPs distinctly increased the RTase activity (Figure 9A)	Co-expression of LsCPTL2 with LsCPT3 resulted in an increase of the activity of LsCPT3
